{"source": "patent US8962600B2", "about": "“Neuroprotective compounds and their use” (The Medical College of Wisconsin, Inc., priority 2009, dated 2015)", "key": {"[1]": {"tested_on": "MPTP mouse model of Parkinson's Disease", "assay": "HPLC analysis of striatal dopamine and its metabolites, MPTP mouse model (Example 3)", "type": "in vivo, C57BL/6 mice", "conditions": "MPTP- and diapocynin-treated mice, diapocynin 300 mg/kg oral gavage, MPTP 25 mg/kg i.p.", "method": "Six- to 8-week-old C57BL/6 mice weighing 24 to 28 g were housed in standard conditions of constant temperature (22±1° C.), humidity (relative, 30%), and a 12-h light/dark cycle. Mice were allowed free access to food and water. Use of the animals and protocol procedures were approved and supervised by the Committee on Animal Care at Iowa State University (Ames, Iowa). For neurodegeneration studies, mice either received diapocynin (300 mg/kg dose) by oral gavage for 1 day (pre-treatment before MPTP administration), 5 days (co-treatment with MPTP), or 7 days (post-treatment after MPTP).\nFor checking inflammatory and oxidative stress markers, mice were gavaged diapocynin (300 mg/kg dose) 1 day before MPTP treatment (pre-treatment) and continued for another 4 days of co-treatment with MPTP. In the sub-acute MPTP regimen, MPTP (25 mg/kg) was injected intraperitoneally once per day from day 2 to day 7. Control mice received saline at the same dosage.\nStriatal dopamine (DA), DOPAC and HVA levels were quantified by high-performance liquid chromatography (HPLC) with electrochemical detection. Samples were prepared and quantified as described previously (48, 56). In brief, 7 days after MPTP injection mice were sacrificed, striata were collected and stored at −80° C. On the day of analysis, neurotransmitters from striatal tissues were extracted using an antioxidant extraction solution (0.1 M perchloric acid containing 0.05% Na2EDTA and 0.1% Na2S2O5) and isoproterenol (as an internal standard). The extracts were filtered in 0.22 μm spin tubes, and 20 μl of the samples were loaded for analysis. DA, DOPAC and HVA were separated isocratically on a reversed-phase column with a flow rate of 0.6 ml/min. An HPLC system with an automatic sampler equipped with refrigerated temperature control (model 542; ESA, Inc., Bedford, Mass.) was used for HPLC analysis. The electrochemical detection system consisted of a Coulochem (model 5100A, ESA, Inc.) with a microanalysis cell (model 5014A, ESA, Inc.) and a guard cell (model 5020, ESA, Inc.). […]"}, "p67phox": {"tested_on": "p67phox", "assay": "LPS-induced p67phox protein expression in BV2 cells, Western blot", "type": "cell-based, mouse", "conditions": "diapocynin 10 μM 30 min pretreatment, LPS 1 μg/ml 24 hr, back to basal level or below", "method": "(§1) Two cell models of neuroinflammation were used to evaluate the anti-neuroinflammatory property of diapocynin including the mouse BV2 microglial cell line, as well as primary microglia isolated from mouse brains. BV2 cells were obtained from the American Tissue Culture Collection. BV2 cells were maintained in RPMI containing 10% FBS and 100 units of pen/strep at 37° C. and 5% CO2. For treatments, RPMI containing 2% FBS and 100 units of pen/strep was used.\n(§2) BV2 cell lysates containing equal amounts of protein were loaded in each lane and separated on a 10% SDS-PAGE gel. After separation, the protein was transferred to a nitrocellulose membrane. Non-specific binding sites were blocked with Li-cor blocking buffer for 45 min. The membranes were then treated with primary antibodies directed against NOS2 (mouse monoclonal 1:200) and p67phox (rabbit polyclonal 1:200). To confirm equal amounts of protein were loaded, membranes were also probed for β-actin with a β-actin antibody (dilution of 1:10,000). Secondary antibodies, donkey anti-mouse (Invitrogen) and conjugated anti-rabbit IgG (Rockland), were used at a dilution of 1:10,000 for 1 hr at room temperature. The membranes were imaged and captured using a Li-COR Odyssey infrared imaging system and software."}, "NOS2": {"tested_on": "NOS2", "assay": "LPS-induced NOS2 protein expression in BV2 cells, Western blot", "type": "cell-based, mouse", "conditions": "diapocynin 10 μM 30 min pretreatment, LPS 1 μg/ml 24 hr, back to basal level or below", "method": "as §1, §2"}, "IL-10": {"tested_on": "IL-10", "assay": "LPS-induced IL-10 release in primary microglia, LUMINEX immunoassay", "type": "cell-based, mouse", "conditions": "diapocynin 10 μM, LPS 24 hr", "method": "(§3) Primary microglia were obtained from 1-2 day old C57/b16 mouse pups. Upon collection, whole brains were kept in ice-cold DMEM-F12 medium containing 10% FBS, 1× sodium pyruvate, 1× NEAAs, 100 units pen/strep, and Q. After collection, the brains were placed in 0.25% trypsin-EDTA and incubated at 37° C., with gentle shaking every 5-10 min. After 30 min, the trypsin was removed, and the brains are washed in warmed medium twice. After washing, medium was added to the brains, and the brains were homogenized using gentle pipetting, starting with a 25 ml pipette and moving to smaller pipette tips as the brains were broken up. When the brains were sufficiently homogenized to a single-cell suspension, they were filtered with a 70 μm nylon filter, which allowed microglia and astrocytes to be collected. The resultant cell suspension was plated in T-75 flasks and allowed to grow for 12-14 days at 37° C., 5% CO2. […]\n(§4) Cytokine levels of BV2 and microglial cells treated with diapocynin were determined by LUMINEX® multiplex immunoassay. […]\n(§5) Cytokine standards and controls were adjusted to 40 μl volume and the LUMINEX® Samples were run on a LUMINEX® 200 Total System and analyzed with Multiplex Analysis—LUMINEX® Software (Invitrogen, Carlsbad, Calif.)."}, "IL-1β": {"tested_on": "IL-1β", "assay": "LPS-induced IL-1β release in primary microglia, LUMINEX immunoassay", "type": "cell-based, mouse", "conditions": "diapocynin 10 μM, LPS 24 hr", "method": "as §3, §4, §5"}, "TNF-α": {"tested_on": "TNF-α", "assay": "LPS-induced TNF-α release in primary microglia, LUMINEX immunoassay", "type": "cell-based, mouse", "conditions": "diapocynin 10 μM, LPS 24 hr", "method": "as §3, §4, §5"}}}
{"smiles": "COc1cc(C(C)=O)cc(-c2cc(C(C)=O)cc(OC)c2O)c1O", "note": "[diapocynin]", "values": [{"measurement": "striatal DOPAC levels", "setting": "[1]", "result": "significant preservation"}, {"measurement": "striatal HVA levels", "setting": "[1]", "result": "significant preservation"}, {"measurement": "decrease of dopamine levels in striatum", "setting": "[1]; 7 days after MPTP", "result": "less than 40%"}, {"measurement": "reducing LPS-induced p67phox protein expression", "setting": "p67phox", "result": "extremely effective"}, {"measurement": "reducing LPS-induced NOS2 protein expression", "setting": "NOS2", "result": "extremely effective"}, {"measurement": "blocking LPS-induced release of IL-10", "setting": "IL-10", "result": "very effective"}, {"measurement": "blocking LPS-induced release of IL-1β", "setting": "IL-1β", "result": "very effective"}, {"measurement": "blocking LPS-induced release of TNF-α", "setting": "TNF-α", "result": "very effective"}]}
